Consider 19 molecules from patent US20230257372A1 (CHONG KUN DANG PHARMACEUTICAL CORP., priority 2020, published 2023).

The structures appear in SMILES notation. Like-named read-outs stand apart in the source and are kept apart here.

The target in test [1] is T1, human recombinant HDAC1 (Homo sapiens, UniProt Q13547).
T1 construct: purchased Enzo Life Science, Inc. BML-SE456
Description: HDAC1 enzyme activity inhibition (HDAC Fluorimetric Drug Discovery Kit). It counts as biochemical. Particulars: read-out: HDAC1. The method, boiled down: (§1)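 Compounds in 5-fold dilution series were incubated with […] enzyme and 10 μM substrate at 30° C for 60 minutes. Fluor de Lys Developer II was then added for 30 minutes to stop the reaction and develop the fluorescent signal.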

The target of test [2] is T2, human recombinant HDAC6 (Homo sapiens, UniProt Q9UBN7).
T2 construct: purchased Calbiochem Inc. 382180
T2 sequence (Q9UBN7 1-1215): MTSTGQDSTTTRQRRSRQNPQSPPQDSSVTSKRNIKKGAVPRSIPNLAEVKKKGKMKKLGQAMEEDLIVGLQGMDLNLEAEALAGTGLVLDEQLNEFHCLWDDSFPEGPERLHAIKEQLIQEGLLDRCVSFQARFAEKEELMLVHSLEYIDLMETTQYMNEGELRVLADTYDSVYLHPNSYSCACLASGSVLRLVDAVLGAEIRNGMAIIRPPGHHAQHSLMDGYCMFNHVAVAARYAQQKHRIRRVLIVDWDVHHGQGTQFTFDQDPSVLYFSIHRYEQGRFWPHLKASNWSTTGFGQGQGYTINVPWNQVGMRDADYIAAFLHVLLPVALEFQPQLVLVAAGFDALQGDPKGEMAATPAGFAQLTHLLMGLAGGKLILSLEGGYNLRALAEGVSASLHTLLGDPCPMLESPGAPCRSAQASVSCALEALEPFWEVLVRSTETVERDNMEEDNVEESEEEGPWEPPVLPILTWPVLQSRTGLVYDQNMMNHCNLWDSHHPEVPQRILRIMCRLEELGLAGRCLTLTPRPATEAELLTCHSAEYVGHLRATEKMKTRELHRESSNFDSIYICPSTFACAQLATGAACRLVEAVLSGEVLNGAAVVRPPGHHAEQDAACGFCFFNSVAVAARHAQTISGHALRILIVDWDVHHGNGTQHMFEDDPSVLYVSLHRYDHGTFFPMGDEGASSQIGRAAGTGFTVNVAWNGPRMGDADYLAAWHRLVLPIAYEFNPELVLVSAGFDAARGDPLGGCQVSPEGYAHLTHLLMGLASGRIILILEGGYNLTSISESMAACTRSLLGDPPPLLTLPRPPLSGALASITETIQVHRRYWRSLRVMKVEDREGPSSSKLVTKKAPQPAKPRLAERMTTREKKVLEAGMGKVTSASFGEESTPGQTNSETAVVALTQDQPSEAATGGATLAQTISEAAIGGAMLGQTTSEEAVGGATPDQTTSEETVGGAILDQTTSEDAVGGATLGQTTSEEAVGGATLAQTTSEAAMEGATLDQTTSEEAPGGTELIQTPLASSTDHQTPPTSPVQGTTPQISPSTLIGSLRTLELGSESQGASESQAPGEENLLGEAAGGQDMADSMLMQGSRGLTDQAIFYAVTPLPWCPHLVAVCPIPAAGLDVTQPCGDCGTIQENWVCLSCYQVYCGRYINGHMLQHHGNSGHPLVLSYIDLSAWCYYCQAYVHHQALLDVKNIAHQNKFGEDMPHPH
Description: HDAC6 enzyme activity inhibition (HDAC Fluorimetric Drug Discovery Kit). The format is biochemical. The method, boiled down: as §1

Where [3] appears, read: human recombinant HDAC1, IC50 calculated with GraphPad Prism.
Where [4] appears, read: human recombinant HDAC6, IC50 calculated with GraphPad Prism.
Where [5] appears, read: human recombinant HDAC1, Fluor de Lys substrate, 30° C. 60 minutes.
[6] abbreviates: human recombinant HDAC6, same protocol as HDAC1.

T1 sequence (Q13547 whole entry): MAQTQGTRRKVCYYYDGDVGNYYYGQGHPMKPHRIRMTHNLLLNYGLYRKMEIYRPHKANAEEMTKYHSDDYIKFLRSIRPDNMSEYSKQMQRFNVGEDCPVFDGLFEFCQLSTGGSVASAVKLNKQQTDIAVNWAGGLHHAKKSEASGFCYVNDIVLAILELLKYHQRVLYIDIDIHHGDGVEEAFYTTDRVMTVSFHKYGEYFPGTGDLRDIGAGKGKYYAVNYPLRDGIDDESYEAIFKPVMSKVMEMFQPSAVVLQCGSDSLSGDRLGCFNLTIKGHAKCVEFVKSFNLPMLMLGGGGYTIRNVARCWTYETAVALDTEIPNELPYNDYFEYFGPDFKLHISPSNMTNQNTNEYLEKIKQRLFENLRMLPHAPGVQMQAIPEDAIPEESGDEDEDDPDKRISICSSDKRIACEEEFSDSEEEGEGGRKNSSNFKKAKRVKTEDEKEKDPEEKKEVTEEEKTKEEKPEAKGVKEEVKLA

`CCN1[C@H](C)CN(c2cccc(-c3cn(Cc4ccc(-c5nnc(C(F)F)o5)cc4)nn3)c2)C[C@@H]1C` [Compound 4442]: the values for the IC50 in test [1] (setting [3]) and in test [2] (setting [4]) were over 50000 nM and 39.8 nM, respectively. Moreover, the “HDAC6 selectivity (fold)” value in test [2] (HDAC1 IC50 / HDAC6 IC50) is 1256 fold.

For `FC(F)c1nnc(-c2ccc(Cn3cc(-c4ccc5c(c4)CN(C4CCC4)C5)nn3)nc2)o1` [Compound 4542, 2-(6-((4-(2-cyclobutylisoindolin-5-yl)-1H-1,2,3-triazol-1-yl)methyl)pyridin-3-yl)-5-(difluoromethyl)-1,3,4-oxadiazole], the IC50 in test [1] (setting [5]) is over 50000 nM; in test [2] (setting [6]), 37.4 nM. The “HDAC6 selectivity (fold)” value in test [2] (HDAC6 over HDAC1) came out at 1336 fold.

`CN1Cc2cccc(-c3cn(Cc4ccc(-c5nnc(C(F)F)o5)cn4)nn3)c2C1` [Compound 4595, 2-(difluoromethyl)-5-(6-((4-(2-methylisoindolin-4-yl)-1H-1,2,3-triazol-1-yl)methyl)pyridin-3-yl)-1,3,4-oxadiazole]: the values for the IC50 in test [1] (setting [5]) and in test [2] (setting [6]) were over 50000 nM and 47.8 nM, respectively. Also, in test [2] (HDAC6 over HDAC1), the “HDAC6 selectivity (fold)” value turned out to be 1046 fold.

With `CN1CCN(c2cccc(-c3cn(Cc4ncc(-c5nnc(C(F)F)o5)cc4F)nn3)c2)CC1` [Compound 18924, 2-(difluoromethyl)-5-(5-fluoro-6-((4-(3-(4-methylpiperazin-1-yl)phenyl)-1H-1,2,3-triazol-1-yl)methyl)pyridin-3-yl)-1,3,4-oxadiazole], the IC50 was over 50000 nM in test [1] (setting [5]) and 80 nM in test [2] (setting [6]). In addition, in test [2] (HDAC6 over HDAC1), the “HDAC6 selectivity (fold)” value amounted to 625 fold.

Take `Fc1c(-c2cn(Cc3ccc(-c4nnc(C(F)F)o4)cn3)nn2)cccc1N1CCN(CC2(F)CC2)CC1` [Compound 4600, 2-(difluoromethyl)-5-(6-((4-(2-fluoro-3-(4-((1-fluorocyclopropyl)methyl)piperazin-1-yl)phenyl)-1H-1,2,3-triazol-1-yl)methyl)pyridin-3-yl)-1,3,4-oxadiazole]: the IC50 in test [1] (setting [5]) was over 50000 nM; in test [2] (setting [6]) it was 32.6 nM. In addition, the “HDAC6 selectivity (fold)” value in test [2] (HDAC6 over HDAC1) is listed as 1533 fold.

As to `CN(C)C1CCN(Cc2ccc(-c3cn(Cc4ccc(-c5nnc(C(F)F)o5)cn4)nn3)cc2)CC1` [Compound 4564, 1-(4-(1-((5-(5-(difluoromethyl)-1,3,4-oxadiazol-2-yl)pyridin-2-yl)methyl)-1H-1,2,3-triazol-4-yl)benzyl)-N,N-dimethylpiperidin-4-amine], the IC50 is over 50000 nM in test [1] (setting [5]) and 21.2 nM in test [2] (setting [6]). Further, the “HDAC6 selectivity (fold)” value in test [2] (HDAC6 over HDAC1) was found to be 2358 fold.

As for `Fc1ccnc(-c2cn(Cc3ccc(-c4nnc(C(F)F)o4)cn3)nn2)c1` [Compound 4179, 2-(difluoromethyl)-5-(6-((4-(4-fluoropyridin-2-yl)-1H-1,2,3-triazol-1-yl)methyl)pyridin-3-yl)-1,3,4-oxadiazole], the IC50 in test [1] (setting [3]) is over 50000 nM; in test [2] (setting [4]), 74.4 nM. Also, the “HDAC6 selectivity (fold)” value in test [2] (HDAC1 IC50 / HDAC6 IC50) was found to be 672 fold.

For the molecule `Fc1cc(-c2nnc(C(F)F)o2)ccc1Cn1cc(-c2ccc(CN3CC[C@@H](F)C3)s2)nn1` [Compound 17917], the IC50 in test [1] (setting [5]) was over 50000 nM; in test [2] (setting [6]), 56.7 nM. Further, the “HDAC6 selectivity (fold)” value in test [2] (HDAC6 over HDAC1) was found to be 881 fold.

For `FC(F)c1nnc(-c2ccc(Cn3cc(-c4ccc(-n5cncn5)cc4)nn3)nc2)o1` [Compound 4285, 2-(6-((4-(4-(1H-1,2,4-triazol-1-yl)phenyl)-1H-1,2,3-triazol-1-yl)methyl)pyridin-3-yl)-5-(difluoromethyl)-1,3,4-oxadiazole], the IC50 in test [1] (setting [3]) was over 50000 nM; in test [2] (setting [4]), 31.7 nM. In addition, the “HDAC6 selectivity (fold)” value in test [2] (HDAC1 IC50 / HDAC6 IC50) is listed as 1577 fold.

Regarding `OC1(c2cn(Cc3ccc(-c4nnc(C(F)F)o4)cc3F)nn2)CCOC1` (stereo not drawn) [Compound 4279, 3-(1-(4-(5-(difluoromethyl)-1,3,4-oxadiazol-2-yl)-2-fluorobenzyl)-1H-1,2,3-triazol-4-yl)tetrahydrofuran-3-ol], the IC50 in test [1] (setting [3]) was over 50000 nM; in test [2] (setting [4]), 274 nM. Further, in test [2] (HDAC1 IC50 / HDAC6 IC50), the “HDAC6 selectivity (fold)” value is reported as 182 fold.

With `CN1CCc2ccc(-c3cn(Cc4ccc(-c5nnc(C(F)F)o5)cn4)nn3)cc2C1` [Compound 4209, 2-(difluoromethyl)-5-(6-((4-(2-methyl-1,2,3,4-tetrahydroisoquinolin-7-yl)-1H-1,2,3-triazol-1-yl)methyl)pyridin-3-yl)-1,3,4-oxadiazole], the IC50 in test [1] (setting [3]) was over 50000 nM; in test [2] (setting [4]), 38.5 nM. Besides, in test [2] (HDAC1 IC50 / HDAC6 IC50), the “HDAC6 selectivity (fold)” value worked out at 1298 fold.

In the case of `CN1Cc2ccc(-c3cn(Cc4ccc(-c5nnc(C(F)F)o5)cn4)nn3)cc2C1` [Compound 4540, 2-(difluoromethyl)-5-(6-((4-(2-methylisoindolin-5-yl)-1H-1,2,3-triazol-1-yl)methyl)pyridin-3-yl)-1,3,4-oxadiazole], the IC50 in test [1] (setting [5]) was over 50000 nM; in test [2] (setting [6]), 85.7 nM. In addition, the “HDAC6 selectivity (fold)” value in test [2] (HDAC6 over HDAC1) is 583 fold.

For `CCN1CCc2cc(-c3cn(Cc4ccc(-c5nnc(C(F)F)o5)cc4F)nn3)ccc2C1` [Compound 4359, 2-(difluoromethyl)-5-(4-((4-(2-ethyl-1,2,3,4-tetrahydroisoquinolin-6-yl)-1H-1,2,3-triazol-1-yl)methyl)-3-fluorophenyl)-1,3,4-oxadiazole], the IC50 was over 50000 nM in test [1] (setting [3]) and 42.3 nM in test [2] (setting [4]). For the same molecule, the “HDAC6 selectivity (fold)” value in test [2] (HDAC1 IC50 / HDAC6 IC50) is 1182 fold.

For the molecule `Fc1cc(-c2nnc(C(F)F)o2)cnc1Cn1cc(-c2cccc(C3CCN(C4COC4)CC3)c2)nn1` [Compound 18871, 2-(difluoromethyl)-5-(5-fluoro-6-((4-(3-(1-(oxetan-3-yl)piperidin-4-yl)phenyl)-1H-1,2,3-triazol-1-yl)methyl)pyridin-3-yl)-1,3,4-oxadiazole], the IC50 in test [1] (setting [5]) was over 50000 nM; in test [2] (setting [6]), 74 nM. The “HDAC6 selectivity (fold)” value in test [2] (HDAC6 over HDAC1) came to 675 fold.

Consider `FC(F)c1nnc(-c2ccc(Cn3cc(-c4ccc(Br)nc4)nn3)nc2)o1` [Compound 4183, 2-(6-((4-(6-bromopyridin-3-yl)-1H-1,2,3-triazol-1-yl)methyl)pyridin-3-yl)-5-(difluoromethyl)-1,3,4-oxadiazole], for which the results for the IC50 in test [1] (setting [3]) and in test [2] (setting [4]) were over 50000 nM and 55.8 nM, respectively. Also, the “HDAC6 selectivity (fold)” value in test [2] (HDAC1 IC50 / HDAC6 IC50) was determined as 896 fold.

As to `FC(F)c1nnc(-c2ccc(Cn3cc(-c4ccc(CN5CC6(COC6)C5)cc4)nn3)cc2)o1` [Compound 4551, 6-(4-(1-(4-(5-(difluoromethyl)-1,3,4-oxadiazol-2-yl)benzyl)-1H-1,2,3-triazol-4-yl)benzyl)-2-oxa-6-azaspiro[3.3]heptane], the IC50 is over 50000 nM in test [1] (setting [5]) and 10.5 nM in test [2] (setting [6]). Moreover, in test [2] (HDAC6 over HDAC1), the “HDAC6 selectivity (fold)” value is on record as 4761 fold.

`OCc1ccc(-c2cn(Cc3ccc(-c4nnc(C(F)F)o4)cc3F)nn2)cc1` [Compound 4476, (4-(1-(4-(5-(difluoromethyl)-1,3,4-oxadiazol-2-yl)-2-fluorobenzyl)-1H-1,2,3-triazol-4-yl)phenyl)methanol]: the IC50 in test [1] (setting [3]) was over 50000 nM; in test [2] (setting [4]), 48.9 nM. Also, the “HDAC6 selectivity (fold)” value in test [2] (HDAC1 IC50 / HDAC6 IC50) is reported as 1022 fold.

For the molecule `FC(F)c1nnc(-c2ccc(Cn3cc(-c4cccc(CN5CC6(COC6)C5)c4)nn3)nc2)o1` [Compound 3965, 6-(3-(1-((5-(5-(difluoromethyl)-1,3,4-oxadiazol-2-yl)pyridin-2-yl)methyl)-1H-1,2,3-triazol-4-yl)benzyl)-2-oxa-6-azaspiro[3.3]heptane], the values for the IC50 in test [1] (setting [3]) and in test [2] (setting [4]) were over 50000 nM and 35.9 nM, respectively. Besides, the “HDAC6 selectivity (fold)” value in test [2] (HDAC1 IC50 / HDAC6 IC50) is listed as 1392 fold.

As for `Fc1cc(-c2nnc(C(F)F)o2)ccc1Cn1cc(-c2ccccc2CN2CC3(COC3)C2)nn1` [Compound 4586, 6-(2-(1-(4-(5-(difluoromethyl)-1,3,4-oxadiazol-2-yl)-2-fluorobenzyl)-1H-1,2,3-triazol-4-yl)benzyl)-2-oxa-6-azaspiro[3.3]heptane], the values for the IC50 in test [1] (setting [5]) and in test [2] (setting [6]) were over 50000 nM and 222 nM, respectively. In addition, the “HDAC6 selectivity (fold)” value in test [2] (HDAC6 over HDAC1) came out at 225 fold.
